molecular target: T1, human TLR8 (Homo sapiens, UniProt Q9NR97); test: HEK293-Blue-hTLR-8 cells assay; assay type: cell-based; conditions: HEK293-Blue-hTLR8 cells, R848 stimulation, 20 hrs, SEAP reporter; read-out: HEK/hTLR8 IC50
T1 construct: host or cells: HEK293-Blue-hTLR-8 (HEK293)
T1 sequence (Q9NR97 27-1041): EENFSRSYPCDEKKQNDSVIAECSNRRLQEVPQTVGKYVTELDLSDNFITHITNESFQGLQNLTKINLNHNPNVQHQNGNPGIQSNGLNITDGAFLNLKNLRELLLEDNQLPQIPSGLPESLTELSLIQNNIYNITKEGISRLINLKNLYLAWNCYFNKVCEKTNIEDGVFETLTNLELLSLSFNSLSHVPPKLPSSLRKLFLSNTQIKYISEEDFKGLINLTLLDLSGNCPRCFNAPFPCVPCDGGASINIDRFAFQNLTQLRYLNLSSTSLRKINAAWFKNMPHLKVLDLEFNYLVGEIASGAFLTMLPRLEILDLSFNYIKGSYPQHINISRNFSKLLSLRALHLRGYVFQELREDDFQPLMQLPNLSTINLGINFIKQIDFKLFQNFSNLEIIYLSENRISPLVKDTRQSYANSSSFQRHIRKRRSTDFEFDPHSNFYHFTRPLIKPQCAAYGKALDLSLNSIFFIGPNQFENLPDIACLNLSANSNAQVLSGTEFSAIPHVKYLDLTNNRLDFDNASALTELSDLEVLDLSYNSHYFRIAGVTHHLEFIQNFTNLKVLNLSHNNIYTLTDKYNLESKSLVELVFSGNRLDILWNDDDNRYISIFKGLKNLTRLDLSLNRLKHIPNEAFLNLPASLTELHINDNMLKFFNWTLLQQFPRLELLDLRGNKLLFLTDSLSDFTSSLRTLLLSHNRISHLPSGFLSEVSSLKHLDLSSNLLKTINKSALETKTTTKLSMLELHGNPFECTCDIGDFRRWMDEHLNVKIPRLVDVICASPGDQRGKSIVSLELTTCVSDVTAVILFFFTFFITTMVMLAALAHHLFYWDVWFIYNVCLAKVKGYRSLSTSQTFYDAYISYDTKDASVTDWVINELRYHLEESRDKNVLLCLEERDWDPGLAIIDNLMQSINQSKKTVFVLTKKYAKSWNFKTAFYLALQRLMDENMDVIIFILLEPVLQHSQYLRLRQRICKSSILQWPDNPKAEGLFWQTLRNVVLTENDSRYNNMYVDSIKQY
Method: The following tests were carried out in order to determine the activity of the compounds of formula (I) and (Ia) in HEK293-Blue-hTLR-7/8/9 cells assay.
HEK293-Blue-hTLR-8 cells assay:
A stable HEK293-Blue-hTLR-8 cell line was purchased from InvivoGen (Cat. #: hkb-htlr8, San Diego, Calif., USA). These cells were originally designed for studying the stimulation of human TLR8 by monitoring the activation of NE-κB. A SEAP (secreted embryonic alkaline phosphatase) reporter gene was placed under the control of the IFN-β minimal promoter fused to five NE-κB and AP-1-binding sites. The SEAP was induced by activating NE-κB and AP-1 via stimulating HEK-Blue hTLR8 cells with TLR8 ligands. Therefore the reporter expression was declined by TLR8 antagonist under the stimulation of a ligand, such as R848, for incubation of 20 hrs. The cell culture supernatant SEAP reporter activity was determined using QUANTI-Blue™ kit (Cat. #: rep-qbl, Invivogen, San Diego, Ca, USA) at a wavelength of 640 nm, a detection medium that turns purple or blue in the presence of alkaline phosphatase.
HEK293-Blue-hTLR8 cells were incubated at a density of 250,000-450,000 cells/mL in a volume of 170 μL in a 96-well plate in Dulbecco's Modified Eagle's medium (DMEM) containing 4.5 g/L glucose, 50 U/mL penicillin, […], […], 2 mM L-glutamine, 10% (v/v) heat-inactivated fetal bovine serum with addition of 20 μL test compound in a serial dilution in the presence of final DMSO at 1% and 10 μL of 60 uM R848 in above DMEM, perform incubation under 37° C. in a CO2 incubator for 20 hrs. Then 20 μL of the supernatant from each well was incubated with 180 μL Quanti-blue substrate solution at 37° C. for 2 hrs and the absorbance was read at 620˜655 nm using a spectrophotometer. The signalling pathway that TLR8 activation leads to downstream NE-κB activation has been widely accepted, and therefore similar reporter assay was modified for evaluating TLR8 antagonist.

SMILES	IC50
Cc1cc(N2CC3(CN(C[C@H]4CN(c5ccc(C#N)c6ncccc56)C[C@@H](C)O4)C3)C2)cc(C(C)O)n1 (stereo partly drawn) [Example 44, 5-[(2S,6R)-2-[[2-[2-(1-hydroxyethyl)-6-methyl-4-pyridyl]-2,6-diazaspiro[3.3]heptan-6-yl]methyl]-6-methyl-morpholin-4-yl]quinoline-8-carbonitrile]	30 nM
C[C@@H]1CN(c2ccc(C#N)c3ncccc23)C[C@H](CN2CCN(c3cc(N)nc(CO)c3)CC2)O1 [Example 45, 5-[(2S,6R)-2-[[4-[2-amino-6-(hydroxymethyl)-4-pyridyl]piperazin-1-yl]methyl]-6-methyl-morpholin-4-yl]quinoline-8-carbonitrile]	14 nM
CC(O)c1cc(N2CC3(CN(C[C@H]4CN(c5ccc(C#N)c6ncccc56)C[C@@H](C)O4)C3)C2)ccn1 (stereo partly drawn) [Example 46, 5-[(2S,6R)-2-[[2-[2-(1-hydroxyethyl)-4-pyridyl]-2,6-diazaspiro[3.3]heptan-6-yl]methyl]-6-methyl-morpholin-4-yl]quinoline-8-carbonitrile]	90 nM
C[C@@H]1CN(c2ccc(C#N)c3ncccc23)C[C@H](CN2CC3(C2)CN(c2ccnc(C(C)(C)O)c2)C3)O1 [Example 48, 5-[(2S,6R)-2[[2-[2-(1-hydroxy-1-methyl-ethyl)-4-pyridyl]-2,6-diazaspiro[3.3]heptan-6-yl]methyl]-6-methyl-morpholin-4-yl]quinoline-8-carbonitrile]	198 nM
C[C@@H]1CN(c2ccc(C#N)c3ncccc23)C[C@H](CN2CC3(C2)CN(c2ccnc(C4CC4)c2)C3)O1 [Example 49, 5-[(2S,6R)-2[[2-(2-cyclopropyl-4-pyridyl)-2,6-diazaspiro[3.3]heptan-6-yl]methyl]-6-methyl-morpholin-4-yl]quinoline-8-carbonitrile]	20 nM
Cc1cc(N2CCN(C[C@H]3CN(c4ccc(C#N)c5ncccc45)C[C@@H](C)O3)CC2)cc(CO)n1 [Example 50]	4 nM
C[C@@H]1CN(c2ccc(C#N)c3ncccc23)C[C@H](CN2CC3(C2)CN(c2ccnc(CO)c2)CCO3)O1 [Example 51]	3 nM
